Results on five compounds are retold here after patent publication US20250092039A1, “GLUTARIMIDE-CONTAINING PAN-KRAS-MUTANT DEGRADER COMPOUNDS AND USES THEREOF” (Tiger Biotherapeutics Inc., priority 2022, published 2025).

In one experiment the test system is SW620 cells. Description: 3D cell growth inhibition of SW620 cells carrying endogenous KRAS G12V mutation (CellTiter-Glo 3D, GI50). In kind it is cell-based. Particulars: Homo sapiens, SW-620, 144 h; SW620 cells, 6 days; read-out: SW620 3D cell growth GI50. A digest of the protocol:
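[…], compound exposure lasted 6 days at 37° C, added the day after plating from DMSO stocks over a concentration range. Cells: SW620, KRAS G12V, 3D culture.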

A further experiment addresses KRAS-G12V/RAF1 (Homo sapiens (Human), UniProt P01116, G12V). Description: KRAS/RAF1 binding inhibition assay (AlphaScreen). An outline of the steps: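 IC50 comes from variable-slope nonlinear fits of % inhibition (relative to DMSO) against inhibitor concentration. The AlphaScreen signal tracks the interaction of GppNHp-bound KRAS G12V with the RAF1 RBD after 60 min at 4° C with compound in 2% DMSO final.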

Another experiment concerns the target KRAS G12V (Homo sapiens (Human), UniProt P01116, G12V). Description: KRAS G12V degradation in SW620 cells (Western blot, DC50). The experiment is classed as cell-based. Particulars: 24 hours. A digest of the protocol: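 KRAS levels were quantified by fluorescent Western blot as percent of the DMSO control after 24 h of compound exposure at 37° C in homozygous KRAS G12V SW620 cells. A four-parameter variable-slope fit of the dose-response gave the half-maximal degradation concentration.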

KRAS G12V, sequence (P01116-2 other isoform, or with tags, fused parts or gaps G12V): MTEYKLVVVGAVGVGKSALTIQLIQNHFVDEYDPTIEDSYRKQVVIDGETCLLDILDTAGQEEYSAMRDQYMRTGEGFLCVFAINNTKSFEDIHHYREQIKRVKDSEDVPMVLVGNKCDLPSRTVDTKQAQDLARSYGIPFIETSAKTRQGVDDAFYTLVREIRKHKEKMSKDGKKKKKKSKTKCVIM
KRAS-G12V/RAF1, sequence (P01116-2 other isoform, or with tags, fused parts or gaps G12V): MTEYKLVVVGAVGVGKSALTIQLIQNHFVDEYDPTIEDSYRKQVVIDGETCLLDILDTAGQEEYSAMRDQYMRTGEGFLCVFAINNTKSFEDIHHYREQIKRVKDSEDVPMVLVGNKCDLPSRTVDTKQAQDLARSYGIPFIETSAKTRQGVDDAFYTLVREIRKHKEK

In the case of `CCc1c(F)ccc2cc(O)cc(-c3ncc4c(N5CCC[C@@](C)(O)C5)nc(OCC5(CN6CCC(N7CC8(CCN(c9ccc%10c(c9)CN(C9CCC(=O)NC9=O)C%10=O)CC8)C7)CC6)CC5)nc4c3F)c12` (stereo partly drawn) [Compound 143, 3-(5-(2-(1-((1-(((7-(8-ethyl-7-fluoro-3-hydroxynaphthalen-1-yl)-8-fluoro-4-((R)-3-hydroxy-3-methylpiperidin-1-yl)pyrido[4,3-d]pyrimidin-2-yl)oxy)methyl)cyclopropyl)methyl)piperidin-4-yl)-2,7-diazaspiro[3.5]nonan-7-yl)-1-oxoisoindolin-2-yl)piperidine-2,6-dione], in the experiment with SW620 cells, the 50% growth inhibitory concentration (GI50) is below 10 nM. This compound registered an IC50 at KRAS-G12V/RAF1 below 20 nM. Also, the DC50 at KRAS G12V is below 1 nM.

For `CCc1c(F)ccc2cc(O)cc(-c3ncc4c(N5CCC[C@@](C)(O)C5)nc(OCC5(CN6CCC(CN7CCC(N8CCN(c9ccc%10c(c9)CN([C@H]9CCC(=O)NC9=O)C%10=O)CC8)CC7)CC6)CC5)nc4c3F)c12` [Compound 148, (S)-3-(5-(4-(1-((1-((1-(((7-(8-ethyl-7-fluoro-3-hydroxynaphthalen-1-yl)-8-fluoro-4-((R)-3-hydroxy-3-methylpiperidin-1-yl)pyrido[4,3-d]pyrimidin-2-yl)oxy)methyl)cyclopropyl)methyl)piperidin-4-yl)methyl)piperidin-4-yl)piperazin-1-yl)-1-oxoisoindolin-2-yl)piperidine-2,6-dione], the 50% growth inhibitory concentration (GI50) with SW620 cells was below 10 nM. Also, the half-maximal inhibitory concentration (IC50) at KRAS-G12V/RAF1 was below 20 nM. Besides, the DC50 at KRAS G12V was below 1 nM.

Regarding `CCc1c(F)ccc2cc(O)cc(-c3ncc4c(N5CCCn6nc(C(=O)N(C)C)c(Cl)c6C5)nc(OCC5(CN6CCC(CN7CCN(c8ccc9c(c8)CN([C@H]8CCC(=O)NC8=O)C9=O)CC7)CC6)CC5)nc4c3F)c12` [Compound 108, (S)-3-chloro-5-(2-((1-((4-((4-(2-(2,6-dioxopiperidin-3-yl)-1-oxoisoindolin-5-yl)piperazin-1-yl)methyl)piperidin-1-yl)methyl)cyclopropyl)methoxy)-7-(8-ethyl-7-fluoro-3-hydroxynaphthalen-1-yl)-8-fluoropyrido[4,3-d]pyrimidin-4-yl)-N,N-dimethyl-5,6,7,8-tetrahydro-4H-pyrazolo[1,5-a][1,4]diazepine-2-carboxamide], the GI50 with SW620 cells was below 10 nM. This compound also came in with an IC50 on KRAS-G12V/RAF1 above 200 nM. For the same compound, the DC50 on KRAS G12V fell in the range of 1 to 10 nM.

For `CCc1c(F)ccc2cc(O)cc(-c3ncc4c(N5CCC[C@@](C)(O)C5)nc(OCC5(CN6CCC(OC7CCN(C8CCN(c9ccc%10c(c9)CN(C9CCC(=O)NC9=O)C%10=O)CC8)CC7)CC6)CC5)nc4c3F)c12` (stereo partly drawn) [Compound 43, 3-(5-(4-((1-((1-(((7-(8-ethyl-7-fluoro-3-hydroxynaphthalen-1-yl)-8-fluoro-4-((R)-3-hydroxy-3-methylpiperidin-1-yl)pyrido[4,3-d]pyrimidin-2-yl)oxy)methyl)cyclopropyl)methyl)piperidin-4-yl)oxy)-[1,4′-bipiperidin]-1′-yl)-1-oxoisoindolin-2-yl)piperidine-2,6-dione], in the experiment on SW620 cells, the GI50 is below 10 nM. In addition, the concentration for half-maximal inhibition (IC50) at KRAS-G12V/RAF1 was below 20 nM. The DC50 at KRAS G12V was below 1 nM.

Take `CCc1cccc2cc(O)cc(-c3ncc4c(N5CCC[C@@](C)(O)C5)nc(OCC5(CN6CCC(OC7CCN(c8ccc9c(c8)CN(C8CCC(=O)NC8=O)C9=O)CC7)CC6)CC5)nc4c3F)c12` (stereo partly drawn) [Compound 24, 3-(5-(4-((1-((1-(((7-(8-ethyl-3-hydroxynaphthalen-1-yl)-8-fluoro-4-((R)-3-hydroxy-3-methylpiperidin-1-yl)pyrido[4,3-d]pyrimidin-2-yl)oxy)methyl)cyclopropyl)methyl)piperidin-4-yl)oxy)piperidin-1-yl)-1-oxoisoindolin-2-yl)piperidine-2,6-dione]: the GI50 in the experiment with SW620 cells was below 10 nM. The compound also returned a 50% inhibitory concentration (IC50) at KRAS-G12V/RAF1 of 20 to 200 nM. The same compound gave a half-maximal degradation concentration (DC50) at KRAS G12V below 1 nM.
